Assay results: the supplement of paper PMC10307832

Experiments:
Assay in all cases: relative viability (nuclei count vs DMSO), 5 days (fraction); higher = more cells survive
CUDC-101 + Luminespib = compound: C#Cc1cccc(Nc2ncnc3cc(OC)c(OCCCCCCC(=O)NO)cc23)c1 [CUDC-101] + CCNC(=O)c1noc(-c2cc(C(C)C)c(O)cc2O)c1-c1ccc(CN2CCOCC2)cc1 [Luminespib] (partner 0.01 µM)
How it was run: (§1)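 Lung cancer cell lines in 1536-well plates got either a single drug or a fixed anchor-drug dose together with five library-drug doses (not always all listed) in √10 steps, by pin tool, on the day after seeding. Nuclei were counted after 5 days, and relative viability is the treated-to-vehicle ratio of nuclei counts. Values are medians of duplicate plates.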

[1] = compound: C1=CC=C2C(=C1)N=C(S2)C(C#N)C3=NC(=NC=C3)NCCC4=CN=CC=C4 + Nc1nc2[nH]cc(CCc3ccc(C(=O)N[C@@H](CCC(=O)O)C(=O)O)cc3)c2c(=O)[nH]1 [Pemetrexed] (partner 0.2 µM)
How it was run: as §1

Vandetanib + Dasatinib = compound: COc1cc2/c(=N/c3ccc(Br)cc3F)nc[nH]c2cc1OCC1CCN(C)CC1 [Vandetanib] + Cc1nc(Nc2ncc(C(=O)Nc3c(C)cccc3Cl)s2)cc(N2CCN(CCO)CC2)n1 [Dasatinib] (partner 0.075 µM)
How it was run: as §1

[2] = compound: C1=CC=C2C(=C1)N=C(S2)C(C#N)C3=NC(=NC=C3)NCCC4=CN=CC=C4 + COc1cccc2cc(-c3nc([C@H]4CC[C@H](C(=O)O)CC4)n4ncnc(N)c34)[nH]c12 [OSI-027] (partner 0.5 µM)
How it was run: as §1

Row | Cell Line | relative viability (CUDC-101 + Luminespib; first compound 0.01 µM) | relative viability (CUDC-101 + Luminespib; first compound 0.03162 µM) | relative viability (CUDC-101 + Luminespib; first compound 0.1 µM) | relative viability (CUDC-101 + Luminespib; first compound 0.3162 µM) | relative viability (CUDC-101 + Luminespib; first compound 1 µM) | relative viability ([1]; first compound 0.01581 µM) | relative viability ([1]; first compound 0.05 µM) | relative viability ([1]; first compound 0.1581 µM) | relative viability ([1]; first compound 0.5 µM) | relative viability (Vandetanib + Dasatinib; first compound 0.02 µM) | relative viability (Vandetanib + Dasatinib; first compound 0.06325 µM) | relative viability (Vandetanib + Dasatinib; first compound 0.2 µM) | relative viability (Vandetanib + Dasatinib; first compound 0.6325 µM) | relative viability (Vandetanib + Dasatinib; first compound 2 µM) | relative viability ([2]; first compound 0.005 µM) | relative viability ([2]; first compound 0.01581 µM) | relative viability ([2]; first compound 0.05 µM) | relative viability ([2]; first compound 0.1581 µM) | relative viability ([2]; first compound 0.5 µM) | relative viability ([1]; first compound 0.005 µM)
1 | NCI-H23 | 0.197 | 0.204 | 0.209 | 0.207 | 0.197 | 0.511 | 0.701 | 0.779 | 0.641 | 0.882 | 0.806 | 0.821 | 0.797 | 0.728 | 0.566 | 0.552 | 0.474 | 0.601 | 0.614 | 
2 | NCI-H322M | 0.84 | 0.697 | 0.899 | 1.01 | 0.697 | 0.602 | 0.569 | 0.582 | 0.607 | 0.23 | 0.25 | 0.24 | 0.223 | 0.252 | 0.515 | 0.463 | 0.529 | 0.585 | 0.685 | 0.608
3 | NCI-H358 | 0.263 | 0.407 | 0.225 | 0.659 | 0.448 | 0.173 | 0.169 | 0.165 | 0.188 | 0.131 | 0.201 | 0.161 | 0.136 | 0.124 | 0.726 | 0.749 | 0.805 | 0.913 | 0.739 | 0.265
4 | NCI-H441 | 0.359 | 0.381 | 0.304 | 0.414 | 0.371 | 0.279 | 0.238 | 0.276 | 0.265 | 0.552 | 0.54 | 0.617 | 0.598 | 0.629 |  | 0.669 | 0.556 | 0.719 | 0.487 | 0.317
5 | NCI-H460 | 0.0424 | 0.0301 | 0.0366 | 0.0315 | 0.0288 | 0.0618 | 0.0556 | 0.0607 | 0.0831 | 0.366 | 0.536 | 0.48 | 0.36 | 0.482 | 0.281 | 0.735 | 0.67 | 0.727 | 0.238 | 
6 | NCI-H520 | 0.241 | 0.221 | 0.208 | 0.204 | 0.245 | 0.652 | 0.784 | 0.834 | 0.818 | 0.139 | 0.228 | 0.218 | 0.191 | 0.225 | 0.199 | 0.261 | 0.222 | 0.32 | 0.272 | 0.528
7 | NCI-H522 | 1.18 | 1.19 | 1.03 | 1.66 | 0.686 | 0.698 | 1.01 | 0.807 | 1.03 | 0.849 | 0.724 | 0.885 | 0.808 | 0.821 | 0.674 | 0.681 | 0.717 | 0.713 | 0.685 | 1.22
8 | NCI-H596 | 1.12 | 0.936 | 0.923 | 0.927 | 0.972 | 0.517 | 0.485 | 0.58 | 0.495 | 0.498 | 0.659 | 0.646 | 0.585 | 0.596 | 0.541 | 0.682 | 0.595 | 0.826 | 0.674 | 0.464
9 | NCI-H647 | 0.188 | 0.266 | 0.147 | 0.195 | 0.238 | 0.175 | 0.182 | 0.179 | 0.19 | 0.151 | 0.207 | 0.175 | 0.178 | 0.198 | 0.638 | 0.585 | 0.491 | 0.756 | 0.527 | 0.165
10 | NCI-H650 | 0.959 | 0.688 | 0.912 | 0.957 | 0.619 | 0.879 | 0.905 | 0.924 | 1.14 | 0.425 | 0.511 |  | 0.433 | 0.365 | 0.521 |  | 0.544 | 0.475 | 0.486 | 0.938
11 | NCI-H661 | 0.985 | 0.975 | 0.876 | 0.835 | 0.674 | 0.916 | 0.85 | 0.904 | 0.876 | 0.988 | 0.856 | 0.837 | 0.803 | 0.874 | 0.638 | 0.687 | 0.689 | 0.748 | 0.682 | 0.84
12 | NCI-H838 | 0.302 | 0.248 | 0.228 | 0.251 | 0.218 | 0.242 | 0.243 | 0.262 | 0.249 | 0.278 | 0.286 | 0.341 | 0.29 | 0.27 | 0.4 | 0.351 | 0.361 | 0.459 | 0.396 | 0.216
13 | NCI-H1355 | 0.729 | 0.741 | 0.694 | 0.676 | 0.586 | 1.01 | 1.02 | 1.13 | 1.02 | 0.633 | 0.723 | 0.694 | 0.679 | 0.775 | 0.402 | 0.348 | 0.341 | 0.411 | 0.369 | 1.05
14 | NCI-H1395 | 0.623 | 0.733 | 0.906 | 0.802 | 0.663 |  | 0.949 | 1.13 | 0.952 | 0.349 | 0.373 | 0.417 | 0.405 | 0.444 | 0.606 | 0.515 | 0.569 | 0.843 | 0.658 | 0.71
15 | NCI-H1437 | 1.27 | 1.06 | 1.12 | 1.21 | 1.19 | 0.298 | 0.321 | 0.335 | 0.311 | 0.401 | 0.45 | 0.254 | 0.405 | 0.222 | 0.855 | 0.817 | 0.93 | 0.917 | 0.723 | 0.329
16 | NCI-H1563 | 0.447 | 0.526 | 0.506 | 0.531 | 0.495 | 0.728 | 0.696 | 0.779 | 0.764 | 0.44 | 0.443 | 0.462 | 0.472 | 0.454 | 0.643 | 0.744 | 0.705 | 0.838 | 0.618 | 0.751
